# Results taken from EP1209147A1, “CARBOXYLIC ACID DERIVATIVES AND ADHESION MOLECULE INHIBITORS CONTAINING THE SAME AS THE ACTIVE INGREDIENT” (TORAY INDUSTRIES, INC., priority 1999, dated 2001).
# How the values were obtained:
# [1] = system: Guinea Pig Rhinitis Model; assay: Guinea pig rhinitis model (OVA, respiratory resistance); assay type: in vivo, Harley guinea pig; settings: 10 mg intranasally before induction by the antigen; 10 minutes to 8 hours after induction; Fig. 3
# Method: Cyclophosphamide (SIGMA) was dissolved in physiological saline to a concentration of 25 mg/ml, and the solution was intraperitoneally administered to each Harley guinea pig (male, 2 weeks old, JAPAN SLC) at a dose of 50 mg/kg on DAY-0. Equivolume of OVA (2.0 mg/ml) dissolved in physiological saline and 12 ml of aqueous 9% AlK(SO4)2 solution were mixed, and then 10% aqueous Na2CO3 solution was added thereto to adjust the pH to 6.5, thereby obtaining Al(OH)3 gel (OVA 500 µg/ml) on which OVA was adsorbed. The obtained product was centrifuged and the precipitated gel was washed with PBS(-), followed by addition of Bordetella pertussis cell suspension (WAKO PURE CHEMICALS). The OVA concentration was adjusted to 100 µg/ml, and 1 ml (100 µg) of the resulting product was intraperitoneally administered to each guinea pig. On DAY-22, each mice was made to inhale 1% OVA dissolved in physiological saline for 10 minutes. […] The increase in the respiratory resistance from 10 minutes after the induction to 8 hours after the induction was measured by a respiratory resistance-measuring apparatus (body plethysmograph method; SHIZUME MEDICAL), and the result was expressed in terms of the ratio of the measured resistance based on the respiratory resistance measured before the induction by the antigen. […]
# Auricular Edema Model = assay: Auricular edema model (IgE anti-DNP passive sensitization, DNFB induction); assay type: in vivo, BLAB/c mouse
# Method: To each BLAB/c mouse (female, 7 weeks old, JAPAN CHARLES RIVER), mouse IgE anti-DNP antibody (5 mg/kg, SEIKAGAKU CORPORATION) was intravenously administered to passively sensitize the mouse. Twenty four hours later, 20 µl of 0.38% 2,4- dinitrofluorobenzene (DNFB, Aldrich) dissolved in acetone:olive oil (4:1) was applied to the auricle of the sensitized mouse to induce inflammation. The thickness of the auricle was measured until 24 hours after the induction with Digimatic Indicator (Mitutoyo) and the ear swelling rate was calculated according to the following equation: Ear Swelling Rate (%) = (A - B)/B x 100 [formula] • A: Thickness of right auricle at 24 hours after induction • B: Thickness of right auricle before induction
# Twenty four hours after the induction, the auricle was cut off and fixed with formalin. After the fixation, continuous sections of the auricle were prepared and stained by Luna staining. The number of eosinophils in each section was counted and the total of them was defined as the number of eosinophils accumulated in the auricle.
# Compound No. 140 used as the test compound was dissolved in physiological saline and the solution was intravenously administered totally 3 times, i.e., at the time of sensitization, at 8 hours and 24 hours after sensitization, at a dose of 400 mg/kg per each time. Further, to examine the effect of the compound when applied to the auricle, the compound was dissolved in ethanol, and the solution was applied to the auricle totally twice, i.e., at 8 hours after sensitization and at 1 hour before the induction, at a dose of 0.3 mg/ear. To the background group and the control group, physiological saline was intravenously administered and ethanol was applied, respectively. The experiment was carried out using 4 to 6 mice in each group. The results are shown in terms of mean ± standard error.
# Twenty four hours after the induction, the auricle was cut off and fixed with formalin. After the fixation, continuous sections of the auricle were prepared and stained by Luna staining. The number of eosinophils in each section was counted. Compound No. 143 used as the test compound was dissolved in physiological saline and the solution was topically or systemically administered totally 3 times, i.e., at the time of sensitization, at 8 hours and 24 hours after sensitization. The experiment was carried out using 4 to 6 mice in each group. The results are shown in terms of mean ± standard error.
# [2] = system: Mouse Peritonitis Induced by Ragweed Pollen; assay: Mouse peritonitis induced by ragweed pollen; assay type: in vivo, BLAB/c mouse; settings: 400 mg/kg intravenously, totally 5 times; 48 hours after induction
# Method: Ragweed pollen extract 1:100 (TORII PHARMACEUTICAL) was diluted by 10-fold with physiological saline, and the resulting solution was used as an antigen for sensitization. This antigen solution was subcutaneously administered to each BLAB/c mouse (female, 6 weeks old, JAPAN CHARLES RIVER) in an amount of 100 µl each on DAY-0 and DAY-1, and 200 µl each on DAY-6, DAY-8 and DAY-14 to obtain sensitized mice, DAY-0 being the day of the initial sensitization. On DAY-20, 200 µl of the antigen solution was intraperitoneally administered to induce peritonitis. After 48 hours from the induction, each mouse was sacrificed by bleeding to death, and 3 ml of heparin-containing PBS(-) was intraperitoneally injected. Celiotomy was performed and washing solution of the abdominal cavity was recovered. The leukocytes contained in the recovered washing solution were subjected to site spin and a smear specimen was prepared. After staining the specimen by May-Giemsa staining method, the leukocytes were grouped and counted under microscope to determine the number of eosinophils. Compound No. 140 used as the test compound was dissolved in physiological saline and the solution was intravenously administered totally 5 times, i.e., at 16 hours before induction, at the time of induction, at 8 hours, 24 hours and 32 hours after induction, at a dose of 400 mg/kg per each time. […]
structure (smiles),measurement,setting,value
"CC(C)(C)CC(=O)N[C@@H](CSSC[C@H](NC(=O)CC(C)(C)C)C(=O)O)C(=O)O [Example 140, 3-((2(R)-carboxy-2(R)-(3,3-dimethylbutanoylamino)ethyl)disulfanyl)-2(R)-(3,3-dimethylbutanoylamino)propionic acid]",increase in the respiratory resistance,[1],inhibits
same,swelling of ear induced by application of the antigen,Auricular Edema Model; Compound No. 140: 400 mg/kg intravenously 3 times or 0.3 mg/ear applied to auricle,inhibited
same,accumulation of eosinophils to auricle induced by application of the antigen,"Auricular Edema Model; Compound No. 140: 400 mg/kg intravenously 3 times or 0.3 mg/ear applied to auricle, Fig. 1, 400 mg/kg",inhibits
same,Ear Swelling Rate (%),"Auricular Edema Model; applied to auricle, 0.3 mg/ear, twice, 24 hours after induction",26.12%
same,Inhibition Rate (%),"Auricular Edema Model; swelling of ear, applied to auricle, 0.3 mg/ear, twice",40.3%
same,"inhibition rate of accumulation of leukocytes, especially eosinophils, to abdominal cavity",[2],31.1%
